US9399759B2, “Method for producing neurospheres” (Keio University, priority 2008, dated 2016)

What was measured:
[1] = system: dedifferentiation factor-introduced fibroblasts; experiment: Effect of cell death inhibitors on induction of differentiation into mouse neurospheres (Example 2); type: cell-based; conditions: Day 20 of the culture, FIG. 4A
Procedure: (§1) The dedifferentiation factor-introduced fibroblasts cultured as above were dissociated by washing with 0.25% trypsin EDTA, resuspended in 10 ml of DMEM/F-12 serum-free medium (1:1, Invitrogen; containing 0.6% D-glucose, 5 mM HEPES, 3 mM NaHCO3, 2 mM glutamine, 25 ug/ml insulin, 100 ug/ml transferrin, 20 nM progesterone, 60 uM putrescine and 30 nM sodium selenate) supplemented with LIF (recombinant human LIF; Chemi-Con, 100 U/ml) and FGF (PeproTech, 20 ng/ml) at the density of 50 cells/ul, seeded in bacterial plastic culture dishes, and cultured in suspension under the conditions of 37° C. and 5% CO2 with exchanging the culture media every 14 days. On Day 3 and Day 20 during the suspension culture, the states of the cells were observed.
In order to examine the improvement of the efficiency for the induction of differentiation into neurospheres by cell death inhibitors of N-acetyl-L-cysteine (NAC) and 8-chlorophenylthio (pCPT-cAMP), a membrane-permeable analog of cAMP, media supplemented with either or both of 1 mM of NAC(Sigma) and 100 uM of pCPT-cAMP (Sigma) were used in the suspension culture as described in Example 1. Other procedures were followed in the same way as described in Example 1, and numbers of neurospheres on Day 20 of the culture were counted.

human fibroblasts = experiment: Effect of LIF, cAMP and Y27632 on number of human neurospheres formed (Example 2); type: cell-based; conditions: media with cAMP in place of or in addition to LIF, or cAMP, FIG. 4B
Procedure: as §1
In the case of human fibroblasts, the culture media were supplemented with cAMP in place of or in addition to LIF or with cAMP, LIF and a ROCK inhibitor Y27632, and the number of the neurospheres obtained from 250000 cells was counted.

Row | Compound | number of neurospheres as compared to the Control Group ([1]; only NAC added, 1 mM) | effect on neurosphere formation (number of neurospheres obtained from 250000 cells) (human fibroblasts) | increase of number of neurospheres per 10 ml of the medium as compared to Control Group ([1]; only pCPT-cAMP added, 100 uM, adult mouse fibroblasts)
1 | CC(=O)N[C@@H](CS)C(=O)O [NAC, N-acetyl-L-cysteine] | no difference was observed | – | –
2 | C[C@@H](N)[C@H]1CC[C@H](C(=O)Nc2ccncc2)CC1 [Y27632] | – | no effect | –
3 | Nc1ncnc2c1nc(Sc1ccc(Cl)cc1)n2[C@@H]1O[C@@H]2COP(=O)([O-])O[C@H]2[C@H]1O.[Na+] [pCPT-cAMP, 8-chlorophenylthio (pCPT-cAMP)] | – | additive effect | over 100 fold
4 | LIF: recombinant human LIF; Chemi-Con; growth factor added to the medium | – | additive effect | –
